Entries after “also recorded” stand apart in the source; their conditions may differ.
Tests used:
Assay type in all cases: cell-based, Human
U2OS cells [1] = experiment: Real time PCR of mRNA levels; conditions: normalized to GAPDH
Description: FIG. 9B is a bar graph showing the analysis of HR-mediated repair using the DR-GFP system. Relative fold change of GFP positive U2OS cells treated with CHK1i compared to DMSO treatment control. (Error bars=SEM, N=4, ****P-value<0.0001; one sample-t-test was used for the statistical analysis). FIGS. 9C-9D show a histogram showing representative FACS data (FIG. 9C) and a bar graph showing quantitation of G1, S and G2/M population for cell cycle analysis of CHK1i treated cells (FIG. 9D) (Error bars=SD, N=3). FIG. 9E are bar graphs showing real time PCR analysis of total RNA extracted from U2OS cells treated with DMSO, ATRi (5 μM for 8 days) or CHK1i (0.2 μM for 5 days). Values were normalized to GAPDH mRNA levels. (Error bars=SD, N=3). FIG. 9F is a schematic diagram showing a proposed model of how E2F transcription is regulated through ATR-CHK1 signaling. […] FIG. 9H is a bar graph showing DR-GFP analysis of 293-T-REX-E2F6 cells after 8 days of treatment with DMSO or doxycycline. (Error bars=SEM, N=4). FIG. 9I is a histogram showing cell cycle analysis of 293-T-REX-E2F6 cells after 8 days of treatment with DMSO or doxycycline. FIG. 9J is a schematic diagram showing a model depicting multiple roles of ATR in the control of HR capacity.
Cells cultured from 10 cm dish were collected and lysed in 1 ml of TRIzol (Invitrogen). Chloroform was added to the lysed sample to separate RNA. Separated RNA was precipitated by isopropyl alcohol, followed by two washes with 75% ethanol. 1 μg of extracted RNA from each sample was then reverse transcribed with Bio-Rad iScript cDNA synthesis kit. The samples (˜100 ng) were analyzed in a Roche 480 light cycler in a total of 15 μl containing SYBR green mix and primers. The values were calculated using “absolute quantification/2nd derivative max” in lightcycler 480 program and then normalized to the level of GAPDH.

U2OS cells [2] = experiment: DNA damage in cells undergoing chronic ATR inhibition alone
U2OS cells [3] = experiment: DR-GFP assay of HR-mediated repair
Procedure: Human U2OS, HCT116, hTERT RPE-1, HEK293T, HeLa, U87, T98G, A2780, and human skin fibroblast cells (GM08398 and GM18366) were grown in DMEM media supplemented with 10% bovine calf serum, penicillin/streptomycin and non-essential amino acids. SV40 large T antigen transformed hTERT RPE-1 cells were generated by infecting hTERT RPE-1 cells with a SV40 large T antigen (SV40 LT)-expressing retrovirus and were selected using 500 μg/ml G418. The stable SV40 large T antigen transformed hTERT RPE-1 cell line was then maintained in culture media supplemented 500 μg/ml G418. For chronic treatment with ATR inhibitor (ATRi, VE-821) or ATM inhibitor (ATMi, KU-55933), cells were maintained in media with 5 μM ATR or ATM inhibitor respectively for 8 days before cells were subjected to western blot analysis, proteomic analysis, DR-GFP/EJ5-GFP assay or immunofluorescent staining. For CHK1 inhibitor (UCN-01), cells were treated for 5 days with 0.2 μM of inhibitor before the analysis. Primary human fibroblast cells from control subjects (GM08398) and patients with Seckel syndrome (GM18366, ATR-defective) were obtained from Coriell Institute for Medical Research, Camden, N.J.
For the DR-GFP assay, cells (U2OS, HCT116, hTERT RPE-1, HEK293T, HeLa, U87, T98G, A2780, 293-T-REX-E2F6 cells and SV40 large T antigen transformed hTERT RPE-1) were transfected with the mCherry plasmid or DR-GFP reporter plasmid (pDR-GFP; addgene plasmid 26475) together with a plasmid coding for I-SceI (pCBASceI; addgene plasmid 26477) or DR-GFP reporter plasmid together with an empty plasmid pCAGGS. Two days after transfection, cells were trypsinized, resuspended in PBS and then analyzed by flow cytometry using FACSAria Fusion or Accuri C6 cytometer (BD). In each experiment, the percentage of GFP-positive cells from the sample transfected with empty plasmid pCAGGS was subtracted from the percentage of GFP-positive cells in the sample transfected with I-SceI. The GFP percentage was then normalized by the mCherry transfection efficiency. Each graph was plotted based on at least 3 independent experiments showing mean±SEM (N≥3). For the EJ5-GFP assay, EJ5-GFP reporter plasmid (pimEJ5GFP, addgene plasmid 44026) was used instead of DR-GFP reporter plasmid and the assay was performed as described for DR-GFP assay.

U2OS cells [4] = experiment: Cell cycle analysis (propidium iodide, flow cytometry); conditions: chronic 5 μM ATRi
Procedure: Cells were harvested by standard trypsinization and fixed with 70% ethanol. After fixation, cells from each sample were resuspended in PBS, permeabilized using 0.1% Triton X-100 and treated with RNase A (0.8 mg/ml). Then cells were stained with propidium iodide and analyzed by flow cytometry using FACSAria Fusion (BD) or Accuri C6 cytometer (BD) to determine the fraction of cells in different stages of the cell cycle.

[5] = test system: HCT116 (colon cancer) and indicated cancer cell lines; experiment: Immunoblotting of HR factor abundance in cancer cell lines; conditions: cancer cells; 5 μM ATRi, 8 days
Procedure: FIGS. 14A-14B show WB analysis of hTERT RPE-1 (FIG. 14A) or HCT116 (colon cancer)(FIG. 14B) cells after 8 day chronic treatment with 5 μM ATRi or ATMi. […] FIGS. 14D-14E are bar graphs showing the analysis of HR-mediated repair using the DR-GFP system. Relative fold change of GFP positive hTERT RPE-1 (FIG. 14D) or HCT116 (FIG. 14E) cells over DMSO after ATRi treatment. (Error bars=SEM, N≥3, ****P-value<0.0001; one sample-t-test was used for the statistical analysis comparing 2 days versus 8 days of treatment).
Human U2OS, HCT116, hTERT RPE-1, HEK293T, HeLa, U87, T98G, A2780, and human skin fibroblast cells (GM08398 and GM18366) were grown in DMEM media supplemented with 10% bovine calf serum, penicillin/streptomycin and non-essential amino acids. […]
Cells were harvested and lysed in modified radioimmunoprecipitation assay (RIPA) buffer (50 mM Tris-HCl pH 7.5, 150 mM NaCl, 1% tergitol, 0.25% sodium deoxycholate, 5 mM EDTA) supplemented with Complete EDTA-free protease inhibitor cocktail (Roche), 1 mM PMSF, 5 mM sodium fluoride, 10 mM β-glycerol-phosphate and 0.4 mM sodium orthovanadate. […] After being resolved on SDS-PAGE gels, proteins were then transferred onto polyvinylidene difluoride (PVDF) membranes and detected with designated antibodies.

U2OS cells [6] = experiment: EJ5-GFP (NHEJ) assay; conditions: 5 μM ATRi, 8 days
Procedure: Human U2OS, HCT116, hTERT RPE-1, HEK293T, HeLa, U87, T98G, A2780, and human skin fibroblast cells (GM08398 and GM18366) were grown in DMEM media supplemented with 10% bovine calf serum, penicillin/streptomycin and non-essential amino acids. SV40 large T antigen transformed hTERT RPE-1 cells were generated by infecting hTERT RPE-1 cells with a SV40 large T antigen (SV40 LT)-expressing retrovirus and were selected using 500 μg/ml G418. The stable SV40 large T antigen transformed hTERT RPE-1 cell line was then maintained in culture media supplemented 500 μg/ml G418. […]
For the DR-GFP assay, cells (U2OS, HCT116, hTERT RPE-1, HEK293T, HeLa, U87, T98G, A2780, 293-T-REX-E2F6 cells and SV40 large T antigen transformed hTERT RPE-1) were transfected with the mCherry plasmid or DR-GFP reporter plasmid (pDR-GFP; addgene plasmid 26475) together with a plasmid coding for I-SceI (pCBASceI; addgene plasmid 26477) or DR-GFP reporter plasmid together with an empty plasmid pCAGGS. Two days after transfection, cells were trypsinized, resuspended in PBS and then analyzed by flow cytometry using FACSAria Fusion or Accuri C6 cytometer (BD). […]

With CS(=O)(=O)c1ccc(-c2cnc(N)c(C(=O)Nc3ccccc3)n2)cc1 [ATRi, VE-821] the “mRNA levels of BRCA1 and RAD51” value (U2OS cells [1]; ATRi 5 μM 8 days or CHK1i 0.2 μM 5 days) was “reduction in the mRNA levels of BRCA1 and RAD51”, the “mRNA levels of 53BP1” value (U2OS cells [1]; ATRi 5 μM 8 days) was “major changes in the mRNA levels of 53BP1 were not observed” and the DNA damage (U2OS cells [2]) was “not detectable”. The “HR-mediated repair efficiency (DR-GFP, GFP positive cells over DMSO)” value (U2OS cells [3]; 5 μM, chronic 8 days) was “strikingly more severe impairment in HR-mediated repair as compared to short-term ATR inhibition”, the “HR (DR-GFP) upon short-term ATR inhibition” value (U2OS cells [3]; short-term (2 days) ATRi) was “modest reduction in HR” and the “Cell cycle distribution (S-phase cells)” value (U2OS cells [4]) was “minor increase in the number of S-phase cells; also recorded: slight increase in S phase cells”. For the same compound, the “Abundance of BRCA1 (WB)” value [5] was “severe reduction in the abundance of BRCA1” and the “NHEJ efficiency (EJ5-GFP)” value (U2OS cells [6]) was “does not result in a significant change in NHEJ efficiency”.

Source: patent US20190365745A1, “USE OF CHRONIC TREATMENT WITH ATR INHIBITORS TO SENSITIZE CANCER CELLS TO PARP INHIBITORS” (Cornell University, priority 2018, published 2019)
